# Assay results from US20210070748A1, “INHIBITORS OF BRUTONS TYROSINE KINASE” (Pharmacyclics LLC, priority 2015, published 2021).
# Where a name gives a salt, the structure may show the parent alone. Read-outs that look alike come from different tables or passages of the source.
# Columns and labels:
# Format in all cases: biochemical
# [1] = target: T1, BTK-WT (Homo sapiens, UniProt Q06187); assay: Btk in vitro inhibitory activity (one of Method A TR-FRET, Method B electrophoretic mobility shift, Method C radiometric filter binding); details: read-out: BTK-WT (IC50)
# T1 construct: purified from insect cells as a full-length construct containing an N-terminal 6X-His tag; His6 (N); made in house; host or cells: insect cells (baculovirus Sf21 in Method B)
# [2] = target: T2, JAK3 (Homo sapiens, UniProt P52333); assay: Inhibition of a panel of kinases, in vitro HotSpot kinase assay: JAK3; details: 1 μM ATP, read-out: JAK3 (IC50)
# T2 sequence (P52333 1-1124): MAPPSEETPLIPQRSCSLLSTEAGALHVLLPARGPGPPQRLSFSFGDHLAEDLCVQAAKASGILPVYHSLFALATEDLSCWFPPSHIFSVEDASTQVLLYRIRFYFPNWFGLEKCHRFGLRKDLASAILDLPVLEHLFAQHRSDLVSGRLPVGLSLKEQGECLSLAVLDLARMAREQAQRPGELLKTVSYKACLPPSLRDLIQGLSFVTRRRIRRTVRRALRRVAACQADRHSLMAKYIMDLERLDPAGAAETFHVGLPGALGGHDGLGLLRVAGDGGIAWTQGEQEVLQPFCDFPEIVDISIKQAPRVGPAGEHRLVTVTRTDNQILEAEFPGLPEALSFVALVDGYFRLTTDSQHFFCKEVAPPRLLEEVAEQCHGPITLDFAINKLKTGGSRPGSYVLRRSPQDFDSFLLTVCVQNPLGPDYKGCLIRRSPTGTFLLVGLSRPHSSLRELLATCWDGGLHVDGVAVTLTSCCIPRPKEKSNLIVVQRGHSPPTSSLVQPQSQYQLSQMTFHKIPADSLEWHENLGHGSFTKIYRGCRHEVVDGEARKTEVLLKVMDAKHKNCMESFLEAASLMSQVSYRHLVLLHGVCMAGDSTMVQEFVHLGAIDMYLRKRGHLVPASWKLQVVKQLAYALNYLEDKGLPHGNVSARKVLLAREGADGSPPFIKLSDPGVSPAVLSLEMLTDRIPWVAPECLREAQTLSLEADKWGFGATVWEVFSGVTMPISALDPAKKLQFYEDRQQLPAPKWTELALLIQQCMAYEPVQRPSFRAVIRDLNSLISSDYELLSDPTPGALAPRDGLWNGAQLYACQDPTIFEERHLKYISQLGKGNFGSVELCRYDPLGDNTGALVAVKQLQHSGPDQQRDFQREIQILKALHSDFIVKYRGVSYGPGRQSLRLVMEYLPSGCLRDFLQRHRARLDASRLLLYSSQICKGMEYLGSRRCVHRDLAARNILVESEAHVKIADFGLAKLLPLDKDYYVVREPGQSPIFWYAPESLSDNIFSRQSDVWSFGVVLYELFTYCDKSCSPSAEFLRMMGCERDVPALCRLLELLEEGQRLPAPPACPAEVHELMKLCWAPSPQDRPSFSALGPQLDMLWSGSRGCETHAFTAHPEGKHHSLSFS
# [3] = target: LCK (Homo sapiens, UniProt P06239); assay: Inhibition of a panel of kinases, in vitro HotSpot kinase assay: LCK; details: 1 μM ATP, read-out: LCK (IC50)
# Chain of LCK (P06239 whole entry): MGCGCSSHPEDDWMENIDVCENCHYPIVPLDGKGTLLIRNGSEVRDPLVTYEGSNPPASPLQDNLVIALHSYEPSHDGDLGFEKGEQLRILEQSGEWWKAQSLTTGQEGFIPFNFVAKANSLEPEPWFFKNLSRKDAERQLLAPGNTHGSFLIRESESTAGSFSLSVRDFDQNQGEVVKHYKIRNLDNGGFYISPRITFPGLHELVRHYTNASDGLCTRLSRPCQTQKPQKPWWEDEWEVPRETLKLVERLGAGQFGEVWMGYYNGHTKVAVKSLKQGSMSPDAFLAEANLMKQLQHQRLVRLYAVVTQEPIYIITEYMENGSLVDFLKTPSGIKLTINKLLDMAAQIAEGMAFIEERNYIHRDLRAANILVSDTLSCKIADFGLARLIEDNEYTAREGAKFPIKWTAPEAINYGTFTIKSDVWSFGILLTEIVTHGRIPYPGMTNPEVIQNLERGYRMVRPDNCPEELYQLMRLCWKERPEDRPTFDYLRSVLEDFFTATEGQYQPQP
# T1 sequence (Q06187 whole entry): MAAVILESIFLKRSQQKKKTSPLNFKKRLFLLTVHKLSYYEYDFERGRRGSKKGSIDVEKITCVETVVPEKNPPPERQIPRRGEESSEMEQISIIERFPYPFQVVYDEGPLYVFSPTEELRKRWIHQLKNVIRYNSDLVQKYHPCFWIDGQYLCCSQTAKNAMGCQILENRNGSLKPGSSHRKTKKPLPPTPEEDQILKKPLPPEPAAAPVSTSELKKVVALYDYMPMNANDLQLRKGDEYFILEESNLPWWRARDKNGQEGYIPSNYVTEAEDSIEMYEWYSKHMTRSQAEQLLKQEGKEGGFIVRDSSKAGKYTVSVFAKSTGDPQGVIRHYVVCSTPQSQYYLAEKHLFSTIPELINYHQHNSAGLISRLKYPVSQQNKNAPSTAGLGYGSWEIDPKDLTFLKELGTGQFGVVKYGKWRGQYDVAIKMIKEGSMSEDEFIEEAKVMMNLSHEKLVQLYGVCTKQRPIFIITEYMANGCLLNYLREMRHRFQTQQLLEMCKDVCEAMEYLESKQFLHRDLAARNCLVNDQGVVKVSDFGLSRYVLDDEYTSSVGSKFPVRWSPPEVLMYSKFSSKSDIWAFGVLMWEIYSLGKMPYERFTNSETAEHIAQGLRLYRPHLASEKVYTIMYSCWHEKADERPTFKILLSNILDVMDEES
SMILES,"IC50 ([1]; Table 11, Formula B-I)","IC50 ([2]; Table 11, Formula B-I)","IC50 ([3]; Table 11, Formula B-I)","IC50 ([1]; Table 12, Formula C-I)","IC50 ([2]; Table 12, Formula C-I)","IC50 ([3]; Table 12, Formula C-I)"
"CN1CCN(C(=O)c2ccc(Nc3nc(N[C@H]4CC[C@@H](NC(=O)N(C)C)CC4)cnc3C(N)=O)cc2)CC1 [Example B-16, 5-((1s,4s)-4-(3,3-dimethyl-ureido)cyclohexyl-amino)-3-(4-(4-methylpiperazine-1-carbonyl)phenylamino) pyrazine-2-carboxamide]",≤ 100 nM,1000 to 10000 nM,< 100 nM,,,
"Cc1cc(Nc2nc(N[C@@H]3CCCNC3)cnc2C(N)=O)sn1 [Example C-1, 3-[(3-methyl-1,2-thiazol-5-yl)amino]-5-{[(3R)-piperidin-3-yl]amino}pyrazine-2-carboxamide]",,,,≤ 100 nM,< 100 nM,< 100 nM
"Cc1cc(Nc2nc(N[C@H]3CCCN(C(=O)N(C)C)C3)cnc2C(N)=O)sn1 [Example C-2, 5-{[(3S)-1-(dimethylcarbamoyl)piperidin-3-yl]amino}-3-[(3-methyl-1,2-thiazol-5-yl)amino]pyrazine-2-carboxamide]",,,,≤ 100 nM,100 to 1000 nM,100 to 1000 nM
"Cc1cc(Nc2nc(N[C@@H]3CCCN(C(=O)c4ccccc4)C3)cnc2C(N)=O)sn1 [Example C-3, 5-{[(3R)-1-benzoylpiperidin-3-yl]amino}-3-[(3-methyl-1,2-thiazol-5-yl)amino]pyrazine-2-carboxamide]",,,,≤ 100 nM,> 10000 nM,> 10000 nM
"Cc1cc(Nc2nc(N[C@H]3CCCN(C(=O)c4ccc(N(C)C)cc4)C3)cnc2C(N)=O)sn1 [Example C-4, 5-{[(3S)-1-[4-(dimethylamino)benzoyl]piperidin-3-yl]amino}-3-[(3-methyl-1,2-thiazol-5-yl)amino]pyrazine-2-carboxamide]",,,,≤ 100 nM,> 10000 nM,> 10000 nM
"Cc1cc(Nc2nc(N[C@@H]3CCCN(C(=O)N(C)C)C3)cnc2C(N)=O)sn1 [Example C-5, 5-([(3R)-1-(dimethylcarbamoyl)piperidin-3-yl]amino)-3-[(3-methyl-1,2-thiazol-5-yl)amino]pyrazine-2-carboxamide hydrochloride]",,,,100 to 1000 nM,100 to 1000 nM,1000 to 10000 nM
"Cc1cc(Nc2nc(N[C@H]3CCCN(C(=O)c4ccccc4)C3)cnc2C(N)=O)sn1 [Example C-6, 5-{[(3S)-1-benzoylpiperidin-3-yl]amino}-3-[(3-methyl-1,2-thiazol-5-yl)amino]pyrazine-2-carboxamide]",,,,1000 to 10000 nM,> 10000 nM,> 10000 nM
"Cc1cc(Nc2nc(N[C@@H]3CCCN(C(=O)c4ccc(N(C)C)cc4)C3)cnc2C(N)=O)sn1 [Example C-7, 5-{[(3R)-1-[4-(dimethylamino)benzoyl]piperidin-3-yl]amino}-3-[(3-methyl-1,2-thiazol-5-yl)amino]pyrazine-2-carboxamide hydrochloride]",,,,> 10000 nM,> 10000 nM,> 10000 nM
"Cc1cc(Nc2nc(N(C)[C@H]3CCCN(C(=O)N(C)C)C3)cnc2C(N)=O)sn1 [Example C-8, 5-([(3S)-1-(dimethylcarbamoyl)piperidin-3-yl](methyl)amino)-3-[(3-methyl-1,2-thiazol-5-yl)amino]pyrazine-2-carboxamide]",,,,100 to 1000 nM,1000 to 10000 nM,1000 to 10000 nM
"Cc1cc(Nc2nc(N[C@H]3CCN(C(=O)N(C)C)C3)cnc2C(N)=O)sn1 [Example C-10, 5-{[(3S)-1-(dimethylcarbamoyl)pyrrolidin-3-yl]amino}-3-[(3-methyl-1,2-thiazol-5-yl)amino]pyrazine-2-carboxamide]",,,,≤ 100 nM,100 to 1000 nM,100 to 1000 nM
"Cc1cc(Nc2nc(N[C@@H]3CCN(C(=O)c4ccccc4)C3)cnc2C(N)=O)sn1 [Example C-11, 5-{[(3R)-1-benzoylpyrrolidin-3-yl]amino}-3-[(3-methyl-1,2-thiazol-5-yl)amino]pyrazine-2-carboxamide hydrochloride]",,,,≤ 100 nM,1000 to 10000 nM,1000 to 10000 nM
"Cc1cc(Nc2nc(N[C@@H]3CCN(C(=O)N(C)C)C3)cnc2C(N)=O)sn1 [Example C-12, 5-([(3R)-1-(dimethylcarbamoyl)pyrrolidin-3-yl]amino)-3-[(3-methyl-1,2-thiazol-5-yl)amino]pyrazine-2-carboxamide]",,,,100 to 1000 nM,100 to 1000 nM,100 to 1000 nM
"Cc1cc(Nc2nc(N[C@@H]3CCN(C(=O)c4ccc(N(C)C)cc4)C3)cnc2C(N)=O)sn1 [Example C-13, 5-([(3R)-1-[4-(dimethylamino)benzoyl]pyrrolidin-3-yl]amino)-3-[(3-methyl-1,2-thiazol-5-yl)amino]pyrazine-2-carboxamide]",,,,≤ 100 nM,1000 to 10000 nM,1000 to 10000 nM
"Cc1cc(Nc2nc(N(C)CC3CCN(C(=O)N(C)C)CC3)cnc2C(N)=O)sn1 [Example C-14, 5-({[1-(dimethylcarbamoyl)piperidin-4-yl]methyl}(methyl)amino)-3-[(3-methyl-1,2-thiazol-5-yl)amino]pyrazine-2-carboxamide]",,,,100 to 1000 nM,1000 to 10000 nM,1000 to 10000 nM
"Cc1cc(Nc2nc(N(C)CC3CCN(C(=O)c4ccccc4)CC3)cnc2C(N)=O)sn1 [Example C-15, 5-{[(1-benzoylpiperidin-4-yl)methyl](methyl)amino}-3-[(3-methyl-1,2-thiazol-5-yl)amino]pyrazine-2-carboxamide]",,,,100 to 1000 nM,1000 to 10000 nM,1000 to 10000 nM
"Cc1cc(Nc2nc(N(C)CC3CCN(C(=O)c4ccc(N(C)C)cc4)CC3)cnc2C(N)=O)sn1 [Example C-16, 5-[({1-[4-(dimethylamino)benzoyl]piperidin-4-yl}methyl)(methyl)amino]-3-[(3-methyl-1,2-thiazol-5-yl)amino]pyrazine-2-carboxamide]",,,,100 to 1000 nM,1000 to 10000 nM,1000 to 10000 nM
"C=CC(=O)N1CC[C@H](Nc2nnc(C(N)=O)c(Nc3cccc(C(=O)Nc4ccc(C(C)C)c(C)c4)c3)n2)C1 [Example C-29, (S)-3-(1-acryloylpyrrolidin-3-ylamino)-5-(3-(4-isopropyl-3-methylphenyl-carbamoyl)phenyl-amino)-1,2,4-triazine-6-carboxamide]",,,,≤ 100 nM,< 100 nM,> 10000 nM
"C=CC(=O)N1CC[C@@H](Nc2nnc(C(N)=O)c(Nc3cccc(C(=O)Nc4ccc(C(C)C)c(C)c4)c3)n2)C1 [Example C-30, (R)-3-(1-acryloylpyrrolidin-3-ylamino)-5-(3-(4-isopropyl-3-methylphenyl-carbamoyl)phenyl-amino)-1,2,4-triazine-6-carboxamide]",,,,≤ 100 nM,100 to 1000 nM,> 10000 nM
"C=CC(=O)N1CC[C@H](Nc2nnc(C(N)=O)c(Nc3ccc(C(C)C)cc3)n2)C1 [Example C-31, (S)-3-(1-acryloylpyrrolidin-3-ylamino)-5-(4-isopropylphenylamino)-1,2,4-triazine-6-carboxamide]",,,,≤ 100 nM,< 100 nM,100 to 1000 nM
"C=CC(=O)N1CC[C@@H](Nc2nnc(C(N)=O)c(Nc3ccc(C(C)C)cc3)n2)C1 [Example C-32, (R)-3-(1-acryloylpyrrolidin-3-ylamino)-5-(4-isopropylphenylamino)-1,2,4-triazine-6-carboxamide]",,,,≤ 100 nM,< 100 nM,100 to 1000 nM
